These are literature values, as cited in patent US20020034548A1, “STABILIZED ASCORBIC COMPOSITION” (priority 1998, published 2002).

For series [1] the following is noted: pH 5.0.
The conditions of series [2]: 5% ascorbic acid solution.

`O=C1O[C@H]([C@@H](O)CO)C(O)=C1O` [L-ascorbic acid]: the redox potential entry in series [1] is recorded as “+0.127 V”. Further, the “time to completely decay into oxidized form” value in series [2] was “a few days”. For the same molecule, where the note is “2% aqueous solution at 25° C.”, the ascorbic acid deprotonated result was “About 2.4%”. Further, under “aqueous solution, room temperature”, the pK1 is 4.17.
